Data from patent US20040176361A1, “Fused heterocyclic compound and medicinal use thereof” (priority 2001, published 2004).
Counter-ions that a name gives are not always drawn.

Assays:
Recombinant human PARP = Recombinant human PARP (Homo sapiens, UniProt P09874); experiment: PARP enzyme activity inhibitory action; details: PARP inhibitory activity IC50 (nM), 3H-NAD, activated DNA, 25° C. 15 min; average of 3 measurements
Chain of Recombinant human PARP (P09874 whole entry): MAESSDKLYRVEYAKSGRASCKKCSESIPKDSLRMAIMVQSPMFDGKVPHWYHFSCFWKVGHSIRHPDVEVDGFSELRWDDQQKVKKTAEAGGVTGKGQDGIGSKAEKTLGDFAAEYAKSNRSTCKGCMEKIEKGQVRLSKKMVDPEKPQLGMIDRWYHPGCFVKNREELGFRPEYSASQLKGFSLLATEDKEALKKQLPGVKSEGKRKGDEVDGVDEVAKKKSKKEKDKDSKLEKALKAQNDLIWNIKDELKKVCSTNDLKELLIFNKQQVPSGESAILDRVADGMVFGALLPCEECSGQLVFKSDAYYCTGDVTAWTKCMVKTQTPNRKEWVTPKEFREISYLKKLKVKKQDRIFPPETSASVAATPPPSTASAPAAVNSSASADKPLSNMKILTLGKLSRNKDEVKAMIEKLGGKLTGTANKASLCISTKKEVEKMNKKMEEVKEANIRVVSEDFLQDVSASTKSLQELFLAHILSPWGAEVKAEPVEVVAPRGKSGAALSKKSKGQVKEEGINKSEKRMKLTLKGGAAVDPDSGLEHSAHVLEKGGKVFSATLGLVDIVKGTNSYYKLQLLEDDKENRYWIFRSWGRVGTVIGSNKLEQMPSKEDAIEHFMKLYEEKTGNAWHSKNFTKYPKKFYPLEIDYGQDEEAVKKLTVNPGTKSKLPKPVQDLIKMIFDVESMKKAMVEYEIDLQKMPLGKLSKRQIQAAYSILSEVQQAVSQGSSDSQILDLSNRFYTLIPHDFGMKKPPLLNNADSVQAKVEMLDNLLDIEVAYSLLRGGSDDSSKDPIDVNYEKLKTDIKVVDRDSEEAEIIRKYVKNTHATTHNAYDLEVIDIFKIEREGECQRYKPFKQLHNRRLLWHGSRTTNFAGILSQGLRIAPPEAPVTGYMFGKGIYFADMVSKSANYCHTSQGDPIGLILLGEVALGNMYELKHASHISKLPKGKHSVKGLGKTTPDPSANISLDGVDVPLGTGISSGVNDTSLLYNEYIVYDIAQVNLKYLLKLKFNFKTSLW
Description: After incubation at 25° C. for 15 min., the reaction was quenched with 20% trichloroacetic acid, and the resulting acid insoluble fraction was adsorbed on a GF/B filter. The filter was washed several times with 5% trichloroacetic acid, and the radiation dose on the filter was measured by liquid scintillation counter.

Row | SMILES | IC50 (Recombinant human PARP) | melting point
1 | Cc1cccc2c(=O)[nH]c(C3CN4CCC3CC4)nc12 (centres unmarked) [Example 138, 2-(1-azabicyclo[2.2.2]octan-3-yl)-8-methyl-3H-quinazolin-4-one] | 58 nM | 230 to 231 °C (dec.)
2 | Cc1cccc2c(=O)[nH]c(CCN3CCCCC3)nc12 [Example 165, 8-methyl-2-(2-piperidinoethyl)-3H-quinazolin-4-one] | 52 nM | –
3 | O=c1[nH]c(CCN2CCCC2)cc2ccccc12 [Example 220, 3-[2-(pyrrolidin-1-yl)ethyl]-2H-isoquinolin-1-one] | 77 nM | –
4 | CN1CCC(c2cc3ccc(Cl)cc3c(=O)[nH]2)CC1 [Example 183, 7-chloro-3-(1-methylpiperidin-4-yl)-2H-isoquinolin-1-one] | 44 nM | 253 to 255 °C
5 | Cc1cccc2c(=O)[nH]c(C3CCNCC3)cc12 [Example 93, 3-(piperidin-4-yl)-5-methyl-2H-isoquinolin-1-one hydrochloride] | 44 nM | –
6 | CN(C)C1CCN(c2cc3c(Cl)cccc3c(=O)[nH]2)CC1 [Example 29, 5-chloro-3-(4-dimethylaminopiperidin-1-yl)-2H-isoquinolin-1-one] | 65 nM | 210 to 211 °C (dec.)
7 | Cc1cccc2c(=O)[nH]c(CCCN3CCCC3)cc12 [Example 222, 5-methyl-3-[3-(pyrrolidin-1-yl)propyl-1-yl]-2H-isoquinolin-1-one] | 36 nM | –
8 | Cc1cccc2c(=O)[nH]c([C@@H]3CCN4CCCC4C3)cc12 (single isomer, unassigned) [Example 225, 5-methyl-3-(octahydroindolizin-7-yl)-2H-isoquinolin-1-one ¾ water adduct] | 26 nM | –
9 | Cc1cccc2c(=O)[nH]c(CCCN3CCCCC3)cc12 [Example 228, 5-methyl-3-[3-(piperidin-1-yl)propyl]-2H-isoquinolin-1-one] | 72 nM | –
10 | CN1CCN(c2cc3c(Cl)cccc3c(=O)[nH]2)CC1 [Example 21, 5-chloro-3-(4-methylpiperazin-1-yl)-2H-isoquinolin-1-one] | 82 nM | 230 to 231 °C (dec.)
11 | Cc1cccc2c(=O)[nH]c([C@@H]3CCN4CCCC4C3)cc12 (single isomer, unassigned) [Example 226, 5-methyl-3-(octahydroindolizin-7-yl)-2H-isoquinolin-1-one ½ water adduct] | 31 nM | –
12 | CN1CCN(c2cc3c(Br)cccc3c(=O)[nH]2)CC1 [Example 22, 5-bromo-3-(4-methylpiperazin-1-yl)-2H-isoquinolin-1-one] | 96 nM | 240 to 241 °C (dec.)
13 | CN1CCC(c2[nH]c(=O)c3ccccc3c2-c2ccccc2)CC1 [Example 98, 3-(1-methylpiperidin-4-yl)-4-phenyl-2H-isoquinolin-1-one ⅕ water adduct] | 87 nM | 258 to 260 °C (dec.)
14 | CN1CCN(c2cc3c(F)cccc3c(=O)[nH]2)CC1CO (centres unmarked) [Example 205, 5-fluoro-3-(3-hydroxymethyl-4-methylpiperazin-1-yl)-2H-isoquinolin-1-one] | 54 nM | 216 to 217 °C
15 | Cc1cccc2c(=O)[nH]c(CCN3CCCCC3)cc12 [Example 218, 5-methyl-3-[2-(piperidin-1-yl)ethyl]-2H-isoquinolin-1-one] | 26 nM | –
16 | O=c1[nH]c(CCCN2CCCC2)cc2c(O)cccc12 [Example 217, 5-hydroxy-3-(3-(pyrrolidin-1-yl)propyl)-2H-isoquinolin-1-one] | 28 nM | 222 to 225 °C
17 | CN(C)CCCCc1cc2c(O)cccc2c(=O)[nH]1.Cl [Example 188, 5-hydroxy-3-(4-dimethylaminobutyl)-2H-isoquinolin-1-one hydrochloride] | 57 nM | 231 to 233 °C
18 | CN1CC=C(c2cc3ccccc3c(=O)[nH]2)CC1 [Example 190, 3-(1-methyl-1,2,3,6-tetrahydropyridin-4-yl)-2H-isoquinolin-1-one] | 39 nM | 222 to 223 °C
19 | CN1CCC(c2cc3c(F)cccc3c(=O)[nH]2)CC1 [Example 106, 5-fluoro-3-(1-methylpiperidin-4-yl)-2H-isoquinolin-1-one] | 40 nM | 220 to 222 °C
20 | COc1cccc2c(=O)[nH]c(C3CCN(C)CC3)cc12 [Example 107, 5-methoxy-3-(1-methylpiperidin-4-yl)-2H-isoquinolin-1-one] | 45 nM | 239 to 242 °C
21 | COc1cccc2c(=O)[nH]c(N3CCN(C)CC3)cc12 [Example 18, 5-methoxy-3-(4-methylpiperazin-1-yl)-2H-isoquinolin-1-one] | 56 nM | –
22 | CN(C)C1CCN(c2cc3c(F)cccc3c(=O)[nH]2)CC1 [Example 28, 5-fluoro-3-(4-dimethylaminopiperidin-1-yl)-2H-isoquinolin-1-one] | 63 nM | –
23 | O=c1[nH]c(CCN2CCCCC2)cc2ccccc12 [Example 219, 3-[2-(piperidin-1-yl)ethyl]-2H-isoquinolin-1-one] | 63 nM | –
24 | CN1CCC(C2Cc3c(O)cccc3C(=O)N2)CC1 (centres unmarked) [Example 184, 5-hydroxy-3-(1-methylpiperidin-4-yl)-3,4-dihydro-2H-isoquinolin-1-one] | 26 nM | 216 to 218 °C
25 | Cc1cccc2c(=O)[nH]c(CCCN(C)C)nc12 [Example 145, 8-methyl-2-[3-(dimethylamino)propyl]-3H-quinazolin-4-one] | 39 nM | –

Row | SMILES | IC50 (Recombinant human PARP) | melting point
26 | CN1CCN(c2cc3ccccc3c(=O)[nH]2)CC1CO (centres unmarked) [Example 4, 3-(3-hydroxymethyl-4-methylpiperazin-1-yl)-2H-isoquinolin-1-one] | 42 nM | –
27 | Cc1cccc2c(=O)[nH]c(CCN3CCCC3)cc12 [Example 221, 5-methyl-3-[2-(pyrrolidin-1-yl)ethyl]-2H-isoquinolin-1-one] | 42 nM | –
28 | CN1CCN(c2cc3c(Cl)cccc3c(=O)[nH]2)CC1CO (centres unmarked) [Example 214, 5-chloro-3-(3-hydroxymethyl-4-methylpiperazin-1-yl)-2H-isoquinolin-1-one] | 45 nM | 212 to 214 °C
29 | O=c1[nH]c(N2CCCCC2)cc2ccccc12 [Example Y-3010, reference compound] | 5100 nM | –
30 | CN1CCN(c2cc3c(O)cccc3c(=O)[nH]2)CC1 [Example 19, 5-hydroxy-3-(4-methylpiperazin-1-yl)-2H-isoquinolin-1-one] | 25 nM | –
31 | O=c1[nH]c(N2CCN(CCO)CC2)cc2ccccc12 [Example Y-3079, reference compound] | 79 nM | –
32 | Cc1cccc2c(=O)[nH]c(N3CCN(C)CC3)nc12 [Pfizer, reference compound] | 240 nM | –
33 | CN(C)CCCc1cc2ccccc2c(=O)[nH]1 [Example 85, 3-(3-(dimethylamino)propyl)-2H-isoquinolin-1-one] | 47 nM | –
34 | Cc1cccc2c(=O)[nH]c(N3CCN(C)C(CO)C3)cc12 (centres unmarked) [Example 153, 3-(3-hydroxymethyl-4-methylpiperazin-1-yl)-5-methyl-2H-isoquinolin-1-one] | 36 nM | –
35 | Cc1cccc2c(=O)[nH]c(C3CCN(C)C3)cc12 (centres unmarked) [Example 248, 5-methyl-3-(1-methylpyrrolidin-3-yl)-2H-isoquinolin-1-one] | 68 nM | –
36 | CN(C)C1CCN(N2CC(=O)c3c(ccc4ccccc34)C2)CC1 [Example 115, 3-(4-dimethylaminopiperidin-1-yl)-2H-benz[f]isoquinolin-1-one] | – | 232 to 233 °C (dec.)
37 | O=c1[nH]c(N2CCC(N3CCCCC3)CC2)cc2ccccc12 [Example 200, 3-(4-piperidinopiperidin-1-yl)-2H-isoquinolin-1-one] | – | > 200 °C (dec.)
38 | CN(C)C1CCN(c2cc3c(Br)cccc3c(=O)[nH]2)CC1 [Example 32, 5-bromo-3-(4-dimethylaminopiperidin-1-yl)-2H-isoquinolin-1-one] | – | 214 to 215 °C (dec.)
39 | O=c1[nH]c(N2CCN(CCCCN3CCCCC3)CC2)cc2c(Cl)cccc12 [Example 77, 5-chloro-3-{4-[4-(piperidin-1-yl)butyl]piperazin-1-yl}-2H-isoquinolin-1-one] | – | 172 to 173 °C (dec.)
40 | CN1CCN(c2cc3ccccc3c(=O)[nH]2)[C@H](CO)C1 [Example 152, (S)-3-(2-hydroxymethyl-4-methylpiperazin-1-yl)-2H-isoquinolin-1-one] | – | 169 to 171 °C
41 | O=c1[nH]c(C2CN3CCC2CC3)cc2ccccc12 (centres unmarked) [Example 86, 3-(1-azabicyclo[2.2.2]octan-3-yl)-2H-isoquinolin-1-one] | 61 nM | –
42 | O=c1[nH]c(N2CCNC(CO)C2)cc2ccccc12 (centres unmarked) [Example 194, 3-(3-hydroxymethylpiperazin-1-yl)-2H-isoquinolin-1-one] | – | > 120 °C (dec.)
43 | O=c1[nH]c(C2CCCN(Cc3ccccc3)C2)cc2ccccc12 (centres unmarked) [Example 191, 3-(1-benzylpiperidin-3-yl)-2H-isoquinolin-1-one] | – | 176 to 178 °C
44 | Cc1cccc2c(=O)[nH]c(CCCN3CCCC3)nc12 [Example 176, 8-methyl-2-[3-(pyrrolidin-1-yl)propyl]-3H-quinazolin-4-one] | 44 nM | –
45 | COc1cccc(-c2c(C3CCN(C)CC3)[nH]c(=O)c3ccccc23)c1 [Example 170, 4-(3-methoxyphenyl)-3-(1-methylpiperidin-4-yl)-2H-isoquinolin-1-one] | – | 181 to 183 °C
46 | CC1CN(c2cc3ccccc3c(=O)[nH]2)CCN1 (centres unmarked) | – | 164 to 167 °C
47 | COc1ccccc1-c1c(C2CCN(C)CC2)[nH]c(=O)c2ccccc12 [Example 167, 4-(2-methoxyphenyl)-3-(1-methylpiperidin-4-yl)-2H-isoquinolin-1-one] | – | 153 to 155 °C
48 | CN(C)C1CCN(c2cc3ccccc3c(=O)[nH]2)CC1 [Example 3, 3-(4-dimethylaminopiperidine-1-yl)-2H-isoquinolin-1-one] | 70 nM | 204 to 205 °C (dec.)
49 | O=c1[nH]c(CCCN2CCCC2)cc2ccccc12 [Example 213, 3-(3-(pyrrolidin-1-yl)propyl)-2H-isoquinolin-1-one] | 57 nM | 117 to 119 °C
